From patent EP0603240B1, “SAFENING HERBICIDAL PYRAZOLYLSULFONYLUREAS” (priority 1991, dated 1993)

Key:
Assay type in all cases: in vivo
corn [1] = assay: Example 6, Procedure II: Herbicide No. 1 + alachlor (No. 7) with antidotes
Method in brief: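 Herbicide No. 1 plus alachlor and antidote, each applied in acetone, mixed into silt loam cover soil over seeded corn; untreated and herbicide-only controls included. Given initial overhead irrigation equal to 0.6 cm rainfall, then greenhouse sub-irrigation. Percent injury scored, duplicate averages; efficacy is injury without minus with antidote.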

corn [2] = assay: Example 18, Procedure II: Herbicide No. 1 + ERADICANE (EPTC + R-25788) with auxiliary antidotes
Method in brief: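 Corn seeded in silt loam and covered with soil into which herbicide and antidote, in acetone, were mixed; EPTC given as ERADICANE (with R-25788) at 8.96 kg/ha. Overhead irrigation equal to 0.6 cm rainfall, then greenhouse sub-irrigation. Percent injury scored; antidote efficacy as injury difference with versus without antidote.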

[3] = tested on: velvetleaf (Abutilon theophrasti); assay: Example 22: retest of Example 21 at reduced greenhouse temperatures; conditions: Table 22
Method: (§1) Containers were filled and compacted with a fumigated silt loam top soil to a depth of about 1.3 cm from the top of the container. A first container was designated as an untreated control, a second container was designated as a herbicide control, and a third container was designated as a herbicide + antidote test container. Each of the containers was seeded with a crop species. A measured amount of herbicide dispersed or dissolved in acetone was applied to a measured quantity of soil. To this same quantity of soil treated with herbicide, there was added a measured amount of antidote dispersed or dissolved in acetone. The quantity of soil treated with the herbicide and antidote was thoroughly mixed to incorporate the herbicide and antidote in the soil uniformly. The seed bed in the third container of soil was covered with the soil treated with the herbicide and antidote and the container was leveled. For each test series, the seed beds of the first and second containers were likewise covered by soil layers. the cover layer of the first container was not treated with herbicide or antidote.
(§2) The containers were then placed on a bench in a greenhouse and sub-irrigated as required for the duration of the test. […] Plant response is measured in terms of percent injury. Antidote efficacy is indicated as the difference in plant injury by the herbicide(s) without the antidote and with the antidote.
(§3) This procedure is the same as Procedure I, but modified in the manner that after incorporation of the chemicals (herbicide and antidote) the containers with the covered seedbed were treated with an initial overhead irrigation equivalent to 0.6 cm rainfall, then subsequently sub-irrigated as required on greenhouse benches.
(§4) In the series of greenhouse tests described below, for routine screening purposes the herbicide/antidote compositions were tested in crop/weed combinations involving corn as the crop and either or both of the weeds barnyardgrass (Echinochloa crusgalli), a monocotyledonous weed, and velvetleaf (Abutilon theophrasti), a dicotyledonous weed. In the tables below, these weeds are indicated by the symbols "BYG" and "VL", respectively.
(§5) In this example, tests were conducted as in the preceding Examples 18-20, except here the co-herbicidal component was SUTAN® PLUS, a commercial product comprising as the active herbicidal ingredient the compound butylate (Herbicide No. 10) and an antidote […] (Antidote No. 1). Again, the antidotal compounds herein were Nos. 1, 2, 7, 13 and 15. Procedure II was used.
(§6) The experiments in this example were designed as a retest of those described in Example 21 in view of the uncharacteristically poor corn safety and weed control, believed to have resulted from unseasonably high temperatures in the greenhouse. Accordingly, temperatures were reduced for these tests.

[4] = tested on: barnyardgrass (Echinochloa crusgalli); assay: as above; conditions: Table 22
Method: as §1, §2, §3, §4, §5, §6

[5] = tested on: velvetleaf (Abutilon theophrasti); assay: Example 24, Procedure II: Herbicide No. 1 + co-herbicides Nos. 4, 6, 7, 12 with Antidote Nos. 15 and 17-21
Method in brief: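 Greenhouse pots, herbicide No. 1 plus co-herbicides and antidote in acetone incorporated into silt loam soil covering the corn seed bed, with giant foxtail and velvetleaf; initial overhead irrigation equal to 0.6 cm rainfall, then sub-irrigation. Antidote at 2.24 kg/ha; percent injury read 13 days after application, duplicate average.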

corn [6] = assay: Example 21, Procedure II: Herbicide No. 1 + SUTAN PLUS (butylate + antidote) with antidotes
Method in brief: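 Corn seeded in silt loam; cover soil mixed with butylate-plus-antidote product and test antidotes applied in acetone, compared with untreated and herbicide-only controls. Initial overhead irrigation equal to 0.6 cm rainfall, then greenhouse sub-irrigation. Percent injury scored; antidote efficacy is injury difference without versus with antidote.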

corn [7] = assay: Example 7, Procedure II: Herbicide No. 1 + metolachlor (No. 12) with antidotes
Method in brief: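 Herbicide plus antidote, applied in acetone, mixed into silt loam top soil used to cover corn seed beds, with untreated and herbicide-only controls. After incorporation, containers got overhead irrigation equal to 0.6 cm rainfall, then sub-irrigation in greenhouse. Percent injury scored; antidote efficacy is injury difference; duplicate averages.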

[8] = Herbicide No.1 0.56 Kg/ha + SUTAN + 8.96 Kg/ha + antidote 2.24 Kg/ha
[9] = Herbicide No.1 0.56 Kg/ha + SUTAN + 8.96 Kg/ha + antidote 8.96 Kg/ha
[10] = Herbicide No.1 1.12 Kg/ha + SUTAN + 8.96 Kg/ha + antidote 2.24 Kg/ha
[11] = Herbicide No.1 1.12 Kg/ha + SUTAN + 8.96 Kg/ha + antidote 8.96 Kg/ha

## CC1(C)OC(c2ccco2)CN1C(=O)C(Cl)Cl (stereo not shown) [compound 15]
Corn [1]; Herbicide No.1 0.14 + No.7 4.48 kg/ha + antidote 2.24 kg/ha
  % Injury Corn: 20%
Corn [1]; Herbicide No.1 0.14 + No.7 4.48 kg/ha + antidote 8.96 kg/ha
  % Injury Corn: 10%
Corn [1]; Herbicide No.1 0.56 + No.7 4.48 kg/ha + antidote 2.24 kg/ha
  % Injury Corn: 15%
Corn [1]; Herbicide No.1 0.56 + No.7 4.48 kg/ha + antidote 8.96 kg/ha
  % Injury Corn: 15%
Corn [2]; Herbicide No.1 0.56 kg/ha + ERADICANE 8.96 kg/ha, antidote 2.24 kg/ha
  % Injury Corn: 25%
Corn [2]; Herbicide No.1 0.56 kg/ha + ERADICANE 8.96 kg/ha, antidote 8.96 kg/ha
  % Injury Corn: 25%
Corn [2]; Herbicide No.1 1.12 kg/ha + ERADICANE 8.96 kg/ha, antidote 2.24 kg/ha
  % Injury Corn: 15%
Corn [2]; Herbicide No.1 1.12 kg/ha + ERADICANE 8.96 kg/ha, antidote 8.96 kg/ha
  % Injury Corn: 30%
[3]; [8]
  % Injury VL: 70%
[3]; [9]
  % Injury VL: 98%
[3]; [10]
  % Injury VL: 80%
[3]; [11]
  % Injury VL: 80%
[4]; [8]
  % Injury BYG: 85%
[4]; [9]
  % Injury BYG: 90%
[4]; [10]
  % Injury BYG: 85%
[4]; [11]
  % Injury BYG: 90%
[5]; Herb. No. 1 0.07 Kg/ha + Co-Herb. No. 4 1.12 Kg/ha + antidote 2.24 Kg/ha
  % Inhibition VL: 90%
[5]; Herb. No. 1 0.07 Kg/ha + Co-Herb. No. 6 0.14 Kg/ha + antidote 2.24 Kg/ha
  % Inhibition VL: 95%
[5]; Herb. No. 1 0.07 Kg/ha + Co-Herb. No. 7 0.28 Kg/ha + antidote 2.24 Kg/ha
  % Inhibition VL: 85%
[5]; Herb. No. 1 0.07 Kg/ha + Co-Herb. No. 12 0.28 Kg/ha + antidote 2.24 Kg/ha
  % Inhibition VL: 90%
[5]; Herb. No. 1 0.14 Kg/ha + Co-Herb. No. 4 1.12 Kg/ha + antidote 2.24 Kg/ha
  % Inhibition VL: 95%
[5]; Herb. No. 1 0.14 Kg/ha + Co-Herb. No. 6 0.14 Kg/ha + antidote 2.24 Kg/ha
  % Inhibition VL: 85%
[5]; Herb. No. 1 0.14 Kg/ha + Co-Herb. No. 7 0.28 Kg/ha + antidote 2.24 Kg/ha
  % Inhibition VL: 95%
[5]; Herb. No. 1 0.14 Kg/ha + Co-Herb. No. 12 0.28 Kg/ha + antidote 2.24 Kg/ha
  % Inhibition VL: 95%
[5]; Herb. No. 1 0.28 Kg/ha + Co-Herb. No. 4 1.12 Kg/ha + antidote 2.24 Kg/ha
  % Inhibition VL: 95%
[5]; Herb. No. 1 0.28 Kg/ha + Co-Herb. No. 6 0.14 Kg/ha + antidote 2.24 Kg/ha
  % Inhibition VL: 98%
[5]; Herb. No. 1 0.28 Kg/ha + Co-Herb. No. 7 0.28 Kg/ha + antidote 2.24 Kg/ha
  % Inhibition VL: 95%
[5]; Herb. No. 1 0.28 Kg/ha + Co-Herb. No. 12 0.28 Kg/ha + antidote 2.24 Kg/ha
  % Inhibition VL: 98%
[5]; Herb. No. 1 0.56 Kg/ha + Co-Herb. No. 4 1.12 Kg/ha + antidote 2.24 Kg/ha
  % Inhibition VL: 95%
[5]; Herb. No. 1 0.56 Kg/ha + Co-Herb. No. 6 0.14 Kg/ha + antidote 2.24 Kg/ha
  % Inhibition VL: 99%
[5]; Herb. No. 1 0.56 Kg/ha + Co-Herb. No. 7 0.28 Kg/ha + antidote 2.24 Kg/ha
  % Inhibition VL: 98%
[5]; Herb. No. 1 0.56 Kg/ha + Co-Herb. No. 12 0.28 Kg/ha + antidote 2.24 Kg/ha
  % Inhibition VL: 99%
Corn [6]; Herbicide No.1 0.56 kg/ha + SUTAN + 8.96 kg/ha, antidote 2.24 kg/ha
  % Injury Corn: 25%
Corn [6]; Herbicide No.1 0.56 kg/ha + SUTAN + 8.96 kg/ha, antidote 8.96 kg/ha
  % Injury Corn: 25%
Corn [6]; Herbicide No.1 1.12 kg/ha + SUTAN + 8.96 kg/ha, antidote 2.24 kg/ha
  % Injury Corn: 30%
Corn [6]; Herbicide No.1 1.12 kg/ha + SUTAN + 8.96 kg/ha, antidote 8.96 kg/ha
  % Injury Corn: 20%
Corn [7]; Herbicide No.1 0.14 + No.12 3.36 kg/ha + antidote 2.24 kg/ha
  % Injury Corn: 0%
Corn [7]; Herbicide No.1 0.14 + No.12 3.36 kg/ha + antidote 8.96 kg/ha
  % Injury Corn: 10%
Corn [7]; Herbicide No.1 0.56 + No.12 3.36 kg/ha + antidote 2.24 kg/ha
  % Injury Corn: 15%
Corn [7]; Herbicide No.1 0.56 + No.12 3.36 kg/ha + antidote 8.96 kg/ha
  % Injury Corn: 15%
